One series has as its target T1, IRAK4 (Homo sapiens, UniProt Q9NWZ3).
T1 construct: His (N); TEV cleavage site (N)
T1 sequence (Q9NWZ3 1-460): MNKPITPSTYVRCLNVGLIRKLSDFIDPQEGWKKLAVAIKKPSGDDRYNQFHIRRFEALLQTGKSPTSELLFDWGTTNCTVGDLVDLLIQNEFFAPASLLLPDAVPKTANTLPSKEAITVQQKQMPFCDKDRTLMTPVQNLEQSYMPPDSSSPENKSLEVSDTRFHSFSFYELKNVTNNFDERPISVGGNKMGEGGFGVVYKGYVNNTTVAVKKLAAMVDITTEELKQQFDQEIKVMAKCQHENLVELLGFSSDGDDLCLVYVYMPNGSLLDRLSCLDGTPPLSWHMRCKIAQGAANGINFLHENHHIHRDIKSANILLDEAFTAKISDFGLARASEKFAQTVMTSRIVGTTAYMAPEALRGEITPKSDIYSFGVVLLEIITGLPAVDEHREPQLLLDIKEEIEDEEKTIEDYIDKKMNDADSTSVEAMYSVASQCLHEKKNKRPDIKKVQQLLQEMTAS
Put plainly: IRAK4 Enzymatic Assay. In kind it is biochemical. The following applies: His-TEV-IRAK4 20 ng/well, ATP 2 μM, STK1-biotin peptide 300 nM, 3 hours at 30° C., FlashPlate radioactivity. The gist of the method: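 Recombinant His-TEV-tagged IRAK4 (20 ng/well) phosphorylates biotinylated STK1 peptide (300 nM) with 2 μM ATP plus [^33P]ATP, 3 h at 30 °C in pH 7.0 HEPES buffer with MgCl2 and MnCl2; compounds tested 20 μM to 1 nM. Reaction stopped with EDTA; incorporated radioactivity counted on streptavidin FlashPlates.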

SMILES strings stand for the structures.

By IC50 is commonly meant the concentration that gives 50% inhibition. As usually defined, the melting point is the temperature, or range, at which the solid turns liquid.

Regarding `Cn1cc(-c2cccc(-c3ncc(-c4cnn(C5CCS(=O)(=O)C5)c4)cn3)c2)cn1` (stereo not drawn) [Example 219, 5-[1-(1,1-Dioxo-tetrahydro-1lambda6-thiophen-3-yl)-1H-pyrazol-4-yl]-2-[3-(1-methyl-1H-pyrazol-4-yl)-phenyl]-pyrimidine], the melting point is 247 to 250 °C. Besides, the IC50 at IRAK4 fell in the range of 100 to 1000 nM.
For `Cn1cc(-c2cccc(-c3ncc(-c4cnn([C@H]5CC[C@H](OCCO)CC5)c4)cn3)c2)cn1` [Example 277, Trans-2-[4-(-4-{2-[3-(1-Methyl-1H-pyrazol-4-yl)-phenyl]-pyrimidin-5-yl}-pyrazol-1-yl)-cyclohexyloxy]-ethanol] the same measures were 218.7 to 223.3 °C and under 100 nM.
For the compound `Cn1cc(-c2cccc(-c3ncc(-c4cnn([C@H]5CCCNC5)c4)cn3)c2)cn1` [Example 283, 2-[3-(1-Methyl-1H-pyrazol-4-yl)-phenyl]-5-((S)-1-piperidin-3-yl-1H-pyrazol-4-yl)-pyrimidine], the melting point lay within 175.8 to 180.6 °C. Further, the IC50 at IRAK4 was under 100 nM.
The like results for `Cn1cc(-c2cccc(-c3ncc(-c4cnn([C@H]5CC[C@@]6(CC5)CNC(=O)C6)c4)cn3)c2)cn1` [Example 286, trans-8-(4-{2-[3-(1-Methyl-1H-pyrazol-4-yl)-phenyl]-pyrimidin-5-yl}-pyrazol-1-yl)-2-aza-spiro[4.5]decan-3-one] were, in that order, 255 to 258.7 °C and under 100 nM.
The like results for `Cn1cc(-c2cccc(-c3ncc(-c4cnn([C@H]5CC[C@]6(CC5)CNC(=O)C6)c4)cn3)c2)cn1` [Example 287, cis-8-(4-(2-(3-(1-methyl-1H-pyrazol-4-yl)phenyl)pyrimidin-5-yl)-1H-pyrazol-1-yl)-2-azaspiro[4.5]decan-3-one] were, in that order, 262 to 265.8 °C and under 100 nM.
For `Cn1cc(-c2cccc(-c3ncc(-c4cnn(C5CCCC(S(C)(=N)=O)C5)c4)cn3)c2)cn1` (stereo not drawn) [Example 288, imino(methyl)(3-(4-(2-(3-(1-methyl-1H-pyrazol-4-yl)phenyl)pyrimidin-5-yl)-1H-pyrazol-1-yl)cyclohexyl)-λ6-sulfanone], the melting point fell in the range of 172 to 179.2 °C. On IRAK4, the IC50 is under 100 nM.

(Values after patent US9216991B2 (Ares Trading S.A., priority 2012, dated 2015).)
